Data on 1 molecule can be found in article PMC6368337, “GluClR-mediated inhibitory postsynaptic currents reveal targets for ivermectin and potential mechanisms of ivermectin resistance” (PLoS Pathogens, 2019).

Series [1] has as its system Untransfected HEK293 cells. Put plainly: Fluorescence recovery after photobleaching (FRAP), lateral membrane diffusion. To be noted: in cell membrane. The method, then:
The second experiment was aimed at determining the lateral membrane diffusion properties of IVM using the fluorescence recovery after photobleaching (FRAP) technique. After a 30-min equilibration time, 5 cells were monitored for fluorescence recovery within a bleached circular patch of membrane of 3.7 μm diameter (Fig 8C). Any bleaching and recovery of the surrounding area of the cell was measured, using a similar circular patch and used to correct the recovery rate of the membrane delineated by the bleached area. We also noted that the recovery reached 98 ± 2% of control. The time constant (τ) for recovery of 1.3 minutes was used to calculate the diffusion coefficient (D), using the radius (r) of the bleached patch, according to D = r^2/4τ. The calculated value of D was 1.1 x 10^−2 μm^2s^−1. Over the course of 1 s, the IVM-bdpy probe would traverse 0.2 μm along the membrane surface (lateral diffusion rate of 0.2 μms^−1). […] We infer that this slow lateral diffusion rate coupled to membrane partitioning are the major contributors to local increases of IVM around its target binding sites and the slow quasi-irreversible actions of IVM at GluClRs.
Membrane partitioning and FRAP experiments were performed on an LSM 710 inverted 2-photon confocal microscope equipped with a 40X water immersion objective lens (1.2 NA/280 μM WD/0.208 μM/pixel and a GFP/Alexa 488 filter set. Untransfected HEK293 cells at a confluency of 50–75% were plated onto 35-mm glass bottom dishes one day prior to experiments. The IVM-bdpy fluorophore was dissolved in 100% DMSO and stored at ‐20°C at a concentration of 24 mM.
A Mai Tai eHP 2-photon laser/760-1040 nm was used as an excitation source (power at 920 nm) for the FRAP experiments. The laser and bleaching power were set to 7% and 75% respectively. Membrane partitioning images were taken for 35 min at 0.5 Hz after replacing the cell medium (extracellular solution) with one containing the IVM-bdpy probe at a concentration of 500 nM. FRAP images were taken at a frequency of 0.5 Hz for 10 min after a 30 min equilibration period in 500 nM IVM-bdpy.

A short description of series [2]: Lipophilicity (logP). The class given is physicochemical.

Molecules are shown by their SMILES.

The term logP denotes the decadic logarithm of the partition coefficient of the neutral form, usually between octanol and water. The low end stands for lower lipophilicity, the high end for higher lipophilicity. In series [1], `CC[C@H](C)[C@H]1O[C@]2(CC[C@@H]1C)C[C@@H]1C[C@@H](C/C=C(\C)[C@@H](O[C@H]3C[C@H](OC)[C@@H](O[C@H]4C[C@H](OC)[C@@H](O)[C@H](C)O4)[C@H](C)O3)[C@@H](C)/C=C/C=C3\CO[C@@H]4[C@H](O)C(C)=C[C@@H](C(=O)O1)[C@]34O)O2` [IVM, Ivermectin] yielded a lateral diffusion rate of 0.2 μms^−1. This molecule also returned a logP in series [2] of 5.4.
